Results on one compound are retold here after paper PMC6693646 (Neuropharmacology, 2019).

Bridge positions count the residues as written; N and C are the ends. Peptide text beside a SMILES is read from it.

One assay has as its target rα6β4 nAChR (Rattus norvegicus, UniProt P12392+P43143). The experiment in a line: cell-based.
A further assay deals with rα3β4 nAChR (Rattus norvegicus, UniProt P04757+P12392). As to the kind of experiment: cell-based.
Assay [1] has as its target T1, rα6/α3β2β3 nAChR (Rattus norvegicus, UniProt P04757+P12390+P43143). The experiment in a line: cell-based.
In a further assay the target is rα2β2 nAChR (Rattus norvegicus, UniProt P12389+P12390). The experiment in a line: cell-based.
The target of a further assay is rα2β4 nAChR (Rattus norvegicus, UniProt P12389+P12392). The experiment in a line: cell-based.
The target in another assay is rα3β2 nAChR (Rattus norvegicus, UniProt P04757+P12390). The experiment in a line: cell-based.
Chain of rα3β2 nAChR (P04757 26-499 limits assumed): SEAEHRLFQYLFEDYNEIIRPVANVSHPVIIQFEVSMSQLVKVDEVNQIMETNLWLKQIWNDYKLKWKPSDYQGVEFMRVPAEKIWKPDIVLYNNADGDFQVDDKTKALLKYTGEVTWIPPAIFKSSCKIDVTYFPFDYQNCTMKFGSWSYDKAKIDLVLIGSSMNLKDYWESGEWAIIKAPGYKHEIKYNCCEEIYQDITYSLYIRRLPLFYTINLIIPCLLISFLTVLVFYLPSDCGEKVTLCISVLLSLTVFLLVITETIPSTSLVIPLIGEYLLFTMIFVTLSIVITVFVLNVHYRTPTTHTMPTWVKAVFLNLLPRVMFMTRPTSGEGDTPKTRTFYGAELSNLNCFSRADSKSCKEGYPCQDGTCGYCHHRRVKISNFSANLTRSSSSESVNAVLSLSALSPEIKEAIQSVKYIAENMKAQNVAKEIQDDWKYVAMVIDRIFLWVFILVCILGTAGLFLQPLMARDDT
Chain of rα3β2 nAChR (P12390 25-500 limits assumed): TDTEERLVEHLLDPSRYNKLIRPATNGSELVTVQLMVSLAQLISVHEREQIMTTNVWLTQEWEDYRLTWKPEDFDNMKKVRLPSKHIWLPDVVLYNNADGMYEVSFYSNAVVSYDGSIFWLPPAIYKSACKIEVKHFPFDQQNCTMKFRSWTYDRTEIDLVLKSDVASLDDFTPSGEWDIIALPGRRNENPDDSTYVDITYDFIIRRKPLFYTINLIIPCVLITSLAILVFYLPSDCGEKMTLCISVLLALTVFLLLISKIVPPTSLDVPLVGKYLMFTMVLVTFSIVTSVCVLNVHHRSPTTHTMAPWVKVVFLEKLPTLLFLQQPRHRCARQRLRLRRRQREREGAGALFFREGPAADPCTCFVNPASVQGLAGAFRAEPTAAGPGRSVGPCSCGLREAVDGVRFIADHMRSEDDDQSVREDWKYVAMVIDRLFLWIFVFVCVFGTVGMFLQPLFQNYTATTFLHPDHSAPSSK
For a further assay, the target named is rα4β2 nAChR (Rattus norvegicus, UniProt P09483+P12390). The experiment in a line: cell-based. It counts as cell-based.
Chain of rα4β2 nAChR (P09483 31-630 limits assumed): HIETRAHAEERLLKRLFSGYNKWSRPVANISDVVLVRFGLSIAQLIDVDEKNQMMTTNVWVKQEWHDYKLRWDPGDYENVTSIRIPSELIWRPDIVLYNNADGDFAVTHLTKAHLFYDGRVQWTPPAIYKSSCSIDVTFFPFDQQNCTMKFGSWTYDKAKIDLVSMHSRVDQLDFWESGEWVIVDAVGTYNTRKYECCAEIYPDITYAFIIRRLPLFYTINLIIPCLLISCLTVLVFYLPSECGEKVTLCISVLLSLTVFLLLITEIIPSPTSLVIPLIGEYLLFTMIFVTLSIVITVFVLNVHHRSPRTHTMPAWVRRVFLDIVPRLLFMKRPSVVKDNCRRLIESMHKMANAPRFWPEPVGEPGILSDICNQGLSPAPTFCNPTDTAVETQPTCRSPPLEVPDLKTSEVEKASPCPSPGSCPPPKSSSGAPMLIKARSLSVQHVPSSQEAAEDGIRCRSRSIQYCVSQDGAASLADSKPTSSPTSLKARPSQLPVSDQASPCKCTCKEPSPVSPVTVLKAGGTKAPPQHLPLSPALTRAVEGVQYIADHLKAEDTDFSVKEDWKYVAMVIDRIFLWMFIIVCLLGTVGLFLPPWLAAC
Chain of rα4β2 nAChR (P12390 25-500 limits assumed): as the sequence (P12390 25-500 limits assumed) above
In the next assay the target is rα4β4 nAChR (Rattus norvegicus, UniProt P09483+P12392). As to the kind of experiment: cell-based.
Chain of rα4β4 nAChR (P09483 31-630 limits assumed): as the sequence (P09483 31-630 limits assumed) above
Chain of rα4β4 nAChR (P12392 22-495 limits assumed): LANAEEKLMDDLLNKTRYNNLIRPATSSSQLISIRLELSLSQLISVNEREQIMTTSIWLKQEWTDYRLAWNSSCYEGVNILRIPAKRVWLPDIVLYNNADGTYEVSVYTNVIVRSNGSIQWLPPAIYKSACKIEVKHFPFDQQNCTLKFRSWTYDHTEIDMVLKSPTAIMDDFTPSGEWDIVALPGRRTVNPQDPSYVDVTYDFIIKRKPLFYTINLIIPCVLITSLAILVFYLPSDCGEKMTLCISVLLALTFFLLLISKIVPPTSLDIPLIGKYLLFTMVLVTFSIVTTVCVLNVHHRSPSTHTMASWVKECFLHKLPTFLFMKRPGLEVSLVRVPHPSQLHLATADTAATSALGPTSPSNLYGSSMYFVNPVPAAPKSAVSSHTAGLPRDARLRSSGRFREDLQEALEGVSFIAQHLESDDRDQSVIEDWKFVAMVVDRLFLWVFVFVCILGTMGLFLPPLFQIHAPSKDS
A further assay deals with rα7 nAChR (Rattus norvegicus, UniProt Q05941). As to the kind of experiment: cell-based.
Chain of rα7 nAChR (Q05941 23-502 limits assumed): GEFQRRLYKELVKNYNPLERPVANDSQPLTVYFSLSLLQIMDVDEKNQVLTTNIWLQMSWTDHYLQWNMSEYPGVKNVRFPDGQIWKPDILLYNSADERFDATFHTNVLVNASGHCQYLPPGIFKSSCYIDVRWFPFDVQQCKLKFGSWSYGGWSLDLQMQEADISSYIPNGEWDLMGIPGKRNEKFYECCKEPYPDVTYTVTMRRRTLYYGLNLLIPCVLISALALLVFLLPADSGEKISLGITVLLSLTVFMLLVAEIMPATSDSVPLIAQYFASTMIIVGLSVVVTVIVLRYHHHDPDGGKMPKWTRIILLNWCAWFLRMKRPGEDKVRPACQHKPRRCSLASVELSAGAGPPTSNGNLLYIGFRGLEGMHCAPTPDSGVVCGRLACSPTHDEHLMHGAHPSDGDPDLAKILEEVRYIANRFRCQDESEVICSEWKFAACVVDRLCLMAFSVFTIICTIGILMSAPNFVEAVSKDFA
In the next assay the target is rα9α10 nAChR (Rattus norvegicus, UniProt P43144+Q9JLB5). The experiment in a line: cell-based.
A further assay has as its target hα6/α3β4 nAChR (Homo sapiens, UniProt P30926+P32297+Q15825). As to the kind of experiment: cell-based.
The next assay concerns the target hα3β4 nAChR (Homo sapiens, UniProt P30926+P32297). The experiment in a line: cell-based.
A further assay addresses hα6/α3β2β3 nAChR (Homo sapiens, UniProt P17787+P32297+Q05901+Q15825). The experiment in a line: cell-based.
Another assay concerns the target hα4β2 nAChR (Homo sapiens, UniProt P17787+P43681). The experiment in a line: cell-based.
In assay [2] the target is T2, rα6/α3β4 nAChR (Rattus norvegicus, UniProt P04757+P12392+P43143). The experiment in a line: cell-based.
T2 sequence (P43143 31-237 limits assumed): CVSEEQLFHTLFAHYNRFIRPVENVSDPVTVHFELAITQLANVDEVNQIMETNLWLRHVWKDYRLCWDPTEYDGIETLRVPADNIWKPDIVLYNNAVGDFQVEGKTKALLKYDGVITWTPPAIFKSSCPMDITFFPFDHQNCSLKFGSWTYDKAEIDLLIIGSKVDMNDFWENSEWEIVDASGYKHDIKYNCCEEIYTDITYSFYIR
T2 sequence (P04757 233-499 limits assumed): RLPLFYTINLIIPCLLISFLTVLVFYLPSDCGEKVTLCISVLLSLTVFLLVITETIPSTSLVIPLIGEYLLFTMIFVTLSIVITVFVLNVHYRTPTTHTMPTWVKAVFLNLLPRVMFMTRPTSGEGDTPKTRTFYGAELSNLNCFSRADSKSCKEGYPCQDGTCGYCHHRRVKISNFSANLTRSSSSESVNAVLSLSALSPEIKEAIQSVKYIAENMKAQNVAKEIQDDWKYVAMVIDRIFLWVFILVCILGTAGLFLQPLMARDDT
T2 sequence (P12392 22-495 limits assumed): as the sequence (P12392 22-495 limits assumed) above
The target in assay [3] is T2, rα6/α3β4 nAChR. It counts as cell-based.
In assay [4] the target is T1, rα6/α3β2β3 nAChR. It counts as cell-based.
Setting [5] is: read-out: inhibition of ACh-evoked current.

T1 sequence (P43143 31-237 limits assumed): as the sequence (P43143 31-237 limits assumed) above
T1 sequence (P04757 233-499 limits assumed): as the sequence (P04757 233-499 limits assumed) above
T1 sequence (P12390 25-500 limits assumed): as the sequence (P12390 25-500 limits assumed) above
Chain of rα3β4 nAChR (P04757 26-499 limits assumed): as the sequence (P04757 26-499 limits assumed) above
Chain of rα3β4 nAChR (P12392 22-495 limits assumed): as the sequence (P12392 22-495 limits assumed) above
Chain of rα6β4 nAChR (P43143 31-493 limits assumed): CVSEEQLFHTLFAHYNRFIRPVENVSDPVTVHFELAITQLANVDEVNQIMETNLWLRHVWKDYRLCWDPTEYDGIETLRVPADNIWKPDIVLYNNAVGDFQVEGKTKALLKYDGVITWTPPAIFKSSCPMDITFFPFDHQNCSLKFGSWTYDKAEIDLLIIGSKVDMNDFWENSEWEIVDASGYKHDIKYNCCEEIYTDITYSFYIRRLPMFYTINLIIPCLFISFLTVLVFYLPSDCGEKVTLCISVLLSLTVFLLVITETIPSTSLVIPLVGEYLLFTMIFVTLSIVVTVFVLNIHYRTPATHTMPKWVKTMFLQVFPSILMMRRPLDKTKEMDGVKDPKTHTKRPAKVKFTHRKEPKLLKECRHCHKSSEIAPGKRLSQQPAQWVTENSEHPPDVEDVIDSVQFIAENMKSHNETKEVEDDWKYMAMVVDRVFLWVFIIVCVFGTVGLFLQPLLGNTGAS
Chain of rα6β4 nAChR (P12392 22-495 limits assumed): as the sequence (P12392 22-495 limits assumed) above
Chain of hα3β4 nAChR (P32297 32-505 limits assumed): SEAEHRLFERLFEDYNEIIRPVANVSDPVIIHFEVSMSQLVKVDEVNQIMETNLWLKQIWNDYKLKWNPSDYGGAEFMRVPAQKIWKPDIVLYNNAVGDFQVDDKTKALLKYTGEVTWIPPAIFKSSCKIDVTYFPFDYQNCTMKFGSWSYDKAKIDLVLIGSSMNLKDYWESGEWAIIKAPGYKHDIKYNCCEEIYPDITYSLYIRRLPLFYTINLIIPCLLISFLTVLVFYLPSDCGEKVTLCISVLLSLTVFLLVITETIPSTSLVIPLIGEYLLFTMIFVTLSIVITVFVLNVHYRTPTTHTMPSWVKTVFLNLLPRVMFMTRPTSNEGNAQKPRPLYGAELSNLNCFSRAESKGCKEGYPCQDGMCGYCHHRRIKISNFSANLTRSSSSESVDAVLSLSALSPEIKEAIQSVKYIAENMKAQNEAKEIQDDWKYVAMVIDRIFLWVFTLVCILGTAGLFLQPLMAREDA
Chain of hα3β4 nAChR (P30926 22-498 limits assumed): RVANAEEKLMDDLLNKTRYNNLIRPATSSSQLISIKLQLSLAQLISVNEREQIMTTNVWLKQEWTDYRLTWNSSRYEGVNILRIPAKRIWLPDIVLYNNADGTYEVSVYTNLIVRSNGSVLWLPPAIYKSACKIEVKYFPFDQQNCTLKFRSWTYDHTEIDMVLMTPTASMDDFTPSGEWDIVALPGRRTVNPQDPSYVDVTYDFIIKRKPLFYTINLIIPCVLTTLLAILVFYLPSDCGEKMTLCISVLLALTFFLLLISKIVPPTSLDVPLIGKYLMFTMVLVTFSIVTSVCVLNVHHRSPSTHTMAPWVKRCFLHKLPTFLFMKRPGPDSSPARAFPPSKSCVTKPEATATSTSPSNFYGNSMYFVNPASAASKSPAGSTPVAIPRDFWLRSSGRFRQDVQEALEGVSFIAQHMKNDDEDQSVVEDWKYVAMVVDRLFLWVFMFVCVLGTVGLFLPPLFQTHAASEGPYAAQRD

By IC50 is commonly meant the concentration that gives 50% inhibition. What is called inhibition is the share of the control response that was lost under treatment. As usually defined, the koff is a measure of how fast the partners let go of each other. One may read the kon as the rate constant with which the complex forms. Read a high kon as fast association. `CC(C)[C@@H]1NC(=O)[C@@H]2CCCN2C(=O)[C@H](Cc2c[nH]cn2)NC(=O)[C@H](CO)NC(=O)[C@@H]2CSSC[C@@H](C(=O)NCC(N)=O)NC(=O)[C@H](CC(N)=O)NC(=O)[C@@H]3CCCN3C(=O)[C@H](CC(N)=O)NC(=O)[C@H](CCCCN)NC(=O)[C@H]([C@@H](C)O)NC(=O)[C@H](Cc3ccc(O)cc3)NC(=O)[C@H](CSSC[C@H](NC(=O)CNC(=O)CN)C(=O)N2)NC1=O` [VnIB] (H-GGCCSHPVCYTKNPNCG-NH2; disulfide 3-9, 4-16): the half-inhibitory concentration (IC50) against rα6β4 nAChR was 0.012 µM; on rα3β4 nAChR, 0.32 µM; on rα6/α3β2β3 nAChR [1], 4 µM; at rα2β2 nAChR it was greater than 10 µM; at rα2β4 nAChR, greater than 10 µM; at rα3β2 nAChR, greater than 10 µM. Besides, the 50% inhibitory concentration (IC50) against rα4β2 nAChR is greater than 10 µM; against rα4β4 nAChR, greater than 10 µM; on rα7 nAChR it was greater than 10 µM; against rα9α10 nAChR, greater than 10 µM; on hα6/α3β4 nAChR, 0.0053 µM; on hα3β4 nAChR, greater than 10 µM. Further, the IC50 against hα6/α3β2β3 nAChR and on hα4β2 nAChR was greater than 10 µM in each case. For the same compound, the inhibition at 1 µM was found to be 80% at rα3β4 nAChR (setting [5]) and 23% at rα6/α3β2β3 nAChR [1] (setting [5]). Besides, the “effect on ACh-evoked response” value on rα4β2 nAChR is on record as “no significant effect”. Further, on rα6/α3β4 nAChR [2], the koff was 0.00437 s⁻¹. The association rate constant (kon) at rα6/α3β4 nAChR [2] is 420000 M⁻¹ s⁻¹. Also, the results for the “reduction of ACh-evoked currents” value on rα6/α3β4 nAChR [3] and on rα6/α3β2β3 nAChR [4] were ~ 85% and ~ 10%, respectively.
